Reference: paper PMC6297231 (Nature Communications, 2018)

Assays:
Experiment in all cases: cells
[1] = tested on: Calu1; settings: Homo sapiens, Calu-1, 6 h, read-out: AZD5991 6h EC50
Method: (§1) Cells were plated at 3000 cells/well in 384-well white plates in corresponding cell growth media. […] Caspase-3/7 activation was subsequently determined using a Caspase-Glo 3/7 Reagent (Promega) and viability was assayed using the CellTiter-Glo Reagent (Promega) as described in manufacturer’s instructions. Dose–response curves for caspase-3/7 activation and viability were plotted and analyzed (including EC50 and GI50 determination) using GraphPad Prism. Percentage of caspase activation was calculated against the maximum caspase activation value (100%) obtained with a proprietary cell kill control.

[2] = tested on: OCILY7; settings: Homo sapiens, OCI-Ly7, 6 h, read-out: AZD5991 6h EC50
Method: as §1

[3] = tested on: DU145; settings: Homo sapiens, DU-145, 6 h, read-out: AZD5991 6h EC50
Method: as §1

[4] = tested on: AMO1; settings: Homo sapiens, AMO1, 6 h, read-out: AZD5991 6h EC50
Method: as §1

[5] = tested on: HCC827; settings: Homo sapiens, HCC827, 6 h, read-out: AZD5991 6h EC50
Method: as §1

[6] = tested on: OCILY1; settings: Homo sapiens, OCI-Ly1, 6 h, read-out: AZD5991 6h EC50
Method: as §1

[7] = tested on: WSUNHL; settings: Homo sapiens, WSU-NHL, 6 h, read-out: AZD5991 6h EC50
Method: as §1

[8] = tested on: OCILY10; settings: Homo sapiens, OCI-Ly10, 6 h, read-out: AZD5991 6h EC50
Method: as §1

[9] = tested on: ULA; settings: 6 h, read-out: AZD5991 6h EC50
Method: as §1

[10] = tested on: DOHH2; settings: Homo sapiens, DOHH-2, 6 h, read-out: AZD5991 6h EC50
Method: as §1

[11] = tested on: DMS53; settings: Homo sapiens, DMS-53, 6 h, read-out: AZD5991 6h EC50
Method: as §1

[12] = tested on: THP-1; settings: Homo sapiens, THP-1, 6 h, read-out: AZD5991 6h EC50
Method: as §1

[13] = tested on: HL60; settings: Homo sapiens, HL-60, 6 h, read-out: AZD5991 6h EC50
Method: as §1

[14] = tested on: BT549; settings: Homo sapiens, BT-549, 6 h, read-out: AZD5991 6h EC50
Method: as §1

[15] = tested on: KMS26; settings: KMS-26, 6 h, read-out: AZD5991 6h EC50
Method: as §1

[16] = tested on: SNU1197; settings: 6 h, read-out: AZD5991 6h EC50
Method: as §1

[17] = tested on: GRANTA519; settings: Homo sapiens, Granta-519, 6 h, read-out: AZD5991 6h EC50
Method: as §1

[18] = tested on: A101D; settings: Homo sapiens, 6 h, read-out: AZD5991 6h EC50
Method: as §1

[19] = tested on: MINO; settings: Homo sapiens, 6 h, read-out: AZD5991 6h EC50
Method: as §1

[20] = tested on: MUTZ3; settings: 6 h, read-out: AZD5991 6h EC50
Method: as §1

[21] = tested on: EJM; settings: Homo sapiens, 6 h, read-out: AZD5991 6h EC50
Method: as §1

[22] = tested on: U266B1; settings: 6 h, read-out: AZD5991 6h EC50
Method: as §1

[23] = tested on: MALME3M; settings: Homo sapiens, Malme-3M, 6 h, read-out: AZD5991 6h EC50
Method: as §1

[24] = tested on: MM1R; settings: MM.1R, 6 h, read-out: AZD5991 6h EC50
Method: as §1

[25] = tested on: HCC1954; settings: Homo sapiens, HCC1954, 6 h, read-out: AZD5991 6h EC50
Method: as §1

[26] = tested on: KMS34; settings: KMS-34, 6 h, read-out: AZD5991 6h EC50
Method: as §1

[27] = tested on: HCC1187; settings: Homo sapiens, HCC1187, 6 h, read-out: AZD5991 6h EC50
Method: as §1

[28] = tested on: H2110; settings: NCI-H2110, 6 h, read-out: AZD5991 6h EC50
Method: as §1

[29] = tested on: MAVER1; settings: Homo sapiens, Maver1, 6 h, read-out: AZD5991 6h EC50
Method: as §1

[30] = tested on: H1568; settings: NCI-H1568, 6 h, read-out: AZD5991 6h EC50
Method: as §1

[31] = tested on: LK2; settings: Homo sapiens, LK-2, 6 h, read-out: AZD5991 6h EC50
Method: as §1

[32] = tested on: SKMEL24; settings: Homo sapiens, SK-MEL-24, 6 h, read-out: AZD5991 6h EC50
Method: as §1

[33] = tested on: H2126; settings: Homo sapiens, NCI-H2126, 6 h, read-out: AZD5991 6h EC50
Method: as §1

[34] = tested on: RT4; settings: Homo sapiens, RT-4, 6 h, read-out: AZD5991 6h EC50
Method: as §1

[35] = tested on: DMS79; settings: Homo sapiens, DMS-79, 6 h, read-out: AZD5991 6h EC50
Method: as §1

[36] = tested on: OPM2; settings: Homo sapiens, OPM-2, 6 h, read-out: AZD5991 6h EC50
Method: as §1

Cc1c2c(nn1C)CSCc1cc(n(C)n1)CSc1cc(c3ccccc3c1)OCCCc1c(C(=O)O)n(C)c3c-2c(Cl)ccc13 (atropisomer, axis not shown; (Ra)) [(Ra)-7]
EC50 [1]: > 30000 nM
EC50 [2]: 36 nM
EC50 [3]: > 30000 nM
EC50 [4]: 90 nM
EC50 [5]: > 30000 nM
EC50 [6]: 547 nM
EC50 [7]: 512 nM
EC50 [8]: 117 nM
EC50 [9]: 207 nM
EC50 [10]: 136 nM
EC50 [11]: > 30000 nM
EC50 [12]: 125 nM
EC50 [13]: 656 nM
EC50 [14]: 1780 nM
EC50 [15]: 144 nM
EC50 [16]: > 30000 nM
EC50 [17]: > 30000 nM
EC50 [18]: 1520 nM
EC50 [19]: 1290 nM
EC50 [20]: 26 nM
EC50 [21]: 169 nM
EC50 [22]: > 30000 nM
EC50 [23]: > 30000 nM
EC50 [24]: 120 nM
EC50 [25]: 682 nM
EC50 [26]: 240 nM
EC50 [27]: 235 nM
EC50 [28]: 226 nM
EC50 [29]: 27800 nM
EC50 [30]: 300 nM
EC50 [31]: > 30000 nM
EC50 [32]: > 30000 nM
EC50 [33]: 157 nM
EC50 [34]: 18100 nM
EC50 [35]: > 30000 nM
EC50 [36]: 59 nM
